pEC50: −log10 of the molar value.
How the values were obtained:
human TLR2 = human TLR2 (Homo sapiens, UniProt O60603); assay: Reporter gene assay: HEK 293 cells stably transfected with human TLR2 and NF-kB-driven luciferase reporter; details: for Emax: HEK293, 7 h, read-out: Hek-TLR2 (% Eff); for pEC50: Hek-TLR2 μM (EC50), HEK 293 stably transfected with human TLR2 and pNifty-Luciferase, 7 hours incubation, concentration giving 50% of maximal signal
Experimental: As a control assay, normal Hek293 transfected with pNifty-Luc were used. […] Bright-Glo™ Luciferase assay buffer and substrate were supplied by Promega #E263B and #E264B (assay substrate and buffer respectively). 384 well clear-bottom plates were supplied by Greiner bio-one (#789163-G) and were custom bar-coded plates.
Cells were plated at 25,000 cells/well in 384-well plates in a final volume of 50 μl of media. Cells were allowed to adhere to the plates after overnight (18 hours) culture at 37° C. and 5% CO2. Serially diluted experimental and positive control compounds were then dispensed to each well and incubated for 7 hours at 37° C. and 5% CO2. Cells stimulated with DMSO alone also serve as negative controls. After the incubation, 30 μl of the pre-mix assay buffer and substrate buffer were added to each well according to manufacturer's instructions. The luminescence signal was read on a CLIPR machine with an integration time of 20 seconds per plate.

[1] = Evaluation of % alum binding at pH 6.5 (HPLC-MS/MS of supernatant); format: physicochemical; details: 1 mg/mL formulation with aluminum hydroxide adjuvant in Histidine buffer, stirred at 25° C. overnight, control without aluminum hydroxide
Experimental: Evaluation of % Alum Binding
The binding of certain compounds of Formula (I) to aluminum-containing adjuvants at pH 6.5 was evaluated using HPLC-MS/MS to monitor the presence of the compound of Formula (I) in the supernatant.
Evaluation of Binding at pH 6.5
To a mixture of compound (4 mg/mL) in Endotox free water was added 1 M NaOH (2.1 eq) to achieve a clear solution. A mixture of the resulting solution (0.5 mL), Endotox free water (0.86 mL), 100 mM Histidine buffer (0.2 mL) and aluminum hydroxide adjuvant (13.78 mg/mL, 0.44 mL) was stirred at 25° C. overnight to result in a 1 mg/mL formulation. An additional 1 mg/mL formulation was prepared as control in 10 mM Histidine buffer without aluminum hydroxide.
Three 50 uL aliquots of each formulation (in Histidine buffer with and without aluminum hydroxide) were centrifuged at 14,000 rpm for 10 minutes at 4° C. The supernatant was diluted, treated with an internal standard and analyzed by HPLC-MS/MS using a ballistic gradient (from 50% CH3CN-1.0% NH4OH to 95% CH3CN-1.0% NH4OH in 1.5 minutes) on a C8 ([…]×2.1 mm) Waters XBridge column at ambient temperature. The supernatant concentration was determined for each formulation. The fraction in the aluminum hydroxide formulation bound to alum was calculated as follows: […]

Sequence of human TLR2 (O60603 21-784): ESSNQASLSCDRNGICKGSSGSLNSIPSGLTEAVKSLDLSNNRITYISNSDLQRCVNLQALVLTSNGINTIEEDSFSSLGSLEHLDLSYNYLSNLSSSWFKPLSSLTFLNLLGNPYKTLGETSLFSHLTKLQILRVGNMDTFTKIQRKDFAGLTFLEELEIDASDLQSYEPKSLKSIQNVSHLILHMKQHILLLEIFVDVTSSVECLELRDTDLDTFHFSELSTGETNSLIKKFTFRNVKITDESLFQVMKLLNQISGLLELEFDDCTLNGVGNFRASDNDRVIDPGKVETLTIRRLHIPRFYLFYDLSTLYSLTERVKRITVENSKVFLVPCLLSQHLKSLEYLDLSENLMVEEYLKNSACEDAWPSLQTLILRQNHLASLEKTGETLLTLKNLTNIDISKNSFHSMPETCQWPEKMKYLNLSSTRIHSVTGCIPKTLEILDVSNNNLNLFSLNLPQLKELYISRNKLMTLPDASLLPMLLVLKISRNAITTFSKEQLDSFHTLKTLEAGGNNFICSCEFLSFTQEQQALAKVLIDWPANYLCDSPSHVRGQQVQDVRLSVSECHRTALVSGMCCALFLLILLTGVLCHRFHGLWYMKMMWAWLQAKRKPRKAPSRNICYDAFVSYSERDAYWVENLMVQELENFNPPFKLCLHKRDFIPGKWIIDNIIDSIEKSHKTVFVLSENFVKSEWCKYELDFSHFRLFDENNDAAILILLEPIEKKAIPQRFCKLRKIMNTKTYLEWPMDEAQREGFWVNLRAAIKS

SMILES | Emax (human TLR2) [%] | pEC50 (human TLR2) | Alum Binding % [1] [%]
CCCCCCCCCCCC(=O)OC[C@H](CSC[C@H](N)C(=O)NCCOCCP(=O)(O)O)OC(=O)CCCCCCCCCCC [Example 3, (8R,12R)-8-amino-12-(dodecanoyloxy)-7,15-dioxo-3,14-dioxa-10-thia-6-azahexacosylphosphonic acid] | 103 | 6.92 | >80
CCCCCCCCCCCC(=O)OC[C@H](CSC[C@H](N)C(=O)NC1(COCCCP(=O)(O)O)CC1)OC(=O)CCCCCCCCCCC [Example 15, 3-((1-((R)-2-amino-3-((R)-2,3-bis(dodecanoyloxy)propylthio)propanamido)cyclopropyl)methoxy)propylphosphonic acid] | – | – | >80
CCCCCCCCCCCCOC[C@H](CSC[C@H](N)C(=O)NCCOCCOCCOCCP(=O)(O)O)NC(=O)CCCCCCCCCCC [Example 26, ((14R,18R)-14-amino-18-dodecanamido-13-oxo-3,6,9,20-tetraoxa-16-thia-12-azadotriacontyl)phosphonic acid] | 28 | 5.76 | >80
CCCCCCCCCCCCOC[C@H](CSC[C@H](N)C(=O)NCCOCCOCCOCCP(=O)(O)O)OCCCCCCCCCCCC [Example 20, (14R,18R)-14-amino-18-(dodecyloxy)-13-oxo-3,6,9,20-tetraoxa-16-thia-12-azadotriacontylphosphonic acid] | 84 | 6.26 | >80
CCCCCCCCCCCC(=O)OC[C@H](CSC[C@H](N)C(=O)NCCOCCOCCP(=O)(O)O)OC(=O)CCCCCCCCCCC [Example 5, (11R,15R)-11-amino-15-(dodecanoyloxy)-10,18-dioxo-3,6,17-trioxa-13-thia-9-azanonacosylphosphonic acid] | – | – | >80
CCCCCCCCCCCC(=O)OC[C@H](CSC[C@H](N)C(=O)NCCOCCOCCOCCP(=O)(O)O)OC(=O)CCCCCCCCCCC [Example 18, (14R,18R)-14-amino-18-(dodecanoyloxy)-13,21-dioxo-3,6,9,20-tetraoxa-16-thia-12-azadotriacontylphosphonic acid] | 96 | 6.57 | >80
CCCCCCCCCCCC(=O)OC[C@H](CSC[C@H](N)C(=O)NCCCC(F)(F)P(=O)(O)O)OC(=O)CCCCCCCCCCC [Example 19, 4-((R)-2-amino-3-((R)-2,3-bis(dodecanoyloxy)propylthio)propanamido)-1,1-difluorobutylphosphonic acid] | – | – | >80

— US9365506B2, “Compounds and compositions as TLR2 agonists” (NOVARTIS AG, priority 2010, dated 2016)
